Where two headings read alike, the source gives them in different places.
Columns and labels:
[1] = O-alkylglucoside reference, see Rybinski and Hill 1998; cited from earlier work
[2] = Critical micelle concentration and surface tension measurement (tensiometer, Pt plate); type: physicochemical; details: for behavior in terms of CMC compared with Compound 1 / behavior in terms of interfacial tension (γ) reduction compared with Compound 1: photoisomers of Compound 1; for CMC / γmin: room temperature; for CMC: DI water; for γmin: DI water (calibrated to 72.7±0.2 mN/m)
Experimental: To characterize the behavior of the compounds of this invention as surfactants, surface tension can be plotted as a function of concentration and critical micelle concentrations (CMCs) of these surfactants can be calculated. In addition, the hydrophobic-lipophilic balance (HLB) of a surfactant can be calculated according to Griffin's Method. See e.g., Pasquali, R. C.; Taurozzi, M. P.; Bregni, C. Int. J. Pharm.
The CMC for compounds of the invention is determined using known methods in the art.
See, e.g., Pasquali, R. C.; Taurozzi, M. P.; Bregni, C. Int. J. Pharm. […] 14.

[3] = Ross-Miles foam test (ASTM D1173); type: physicochemical; details: for foam enhancing and stabilizing capability compared with Compound 1: photoisomers of Compound 1

## CCCCCCCCCCCCO[C@@H]1O[C@H](CO)[C@@H](O)[C@H](O)[C@H]1O [Dodecyl-AG]
[1]
  CMC: 0.17 mM
  γmin: 24 mN/m

## CCCCCCCCCC/C=C\CC(=O)C[C@@H]1OC(CO)[C@@H](O)[C@H](O)C1O (some centres unmarked) [Compound 48]
[2]
  behavior in terms of CMC compared with Compound 1: substanitally the same behavior
  behavior in terms of interfacial tension (γ) reduction compared with Compound 1: substanitally the same behavior
[3]
  foam enhancing and stabilizing capability compared with Compound 1: substanitally the same behavior

## CCCC1CC(=O)C([C@@H]2O[C@H](CO)[C@@H](O)[C@H](O)[C@H]2O)=CC1CC (stereo partly drawn) [Compound 2, 4-ethyl-5-propyl-2-((2S,3R,4R,5S,6R)-3,4,5-trihydroxy-6-(hydroxymethyl)tetrahydro-2H-pyran-2-yl)cyclohex-2-enone]
[2]
  CMC: 52.2 mM
  γmin: 30 mN/m

## CCCCCCCCCCC/C=C/C(=O)C[C@@H]1O[C@H](CO)[C@@H](O)[C@H](O)[C@H]1O [Compound 1, (E)-1-((2S,3R,4R,5S,6R)-3,4,5-trihydroxy-6-(hydroxymethyl)tetrahydro-2H-pyran-2-yl)pentadec-3-en-2-one]
[2]
  CMC: 0.1 mM
  γmin: 28 mN/m

## CCCCCCCCO[C@@H]1O[C@H](CO)[C@@H](O)[C@H](O)[C@H]1O [Octyl-AG]
[1]
  CMC: 18.0 mM
  γmin: 24 mN/m

## CCCCC/C=C/C(=O)C[C@@H]1O[C@H](CO)[C@@H](O)[C@H](O)[C@H]1O [Compound 46, (E)-1-((2S,3R,4R,5S,6R)-3,4,5-trihydroxy-6-(hydroxy-methyl)tetrahydro-2H-pyran-2-yl)non-3-en-2-one]
[2]
  CMC: 3.9 mM
  γmin: 24 mN/m

## CCCCCC1CC(=O)C([C@@H]2O[C@H](CO)[C@@H](O)[C@H](O)[C@H]2O)=CC1CCCC (stereo partly drawn) [Compound 3, 4-butyl-5-pentyl-2-((2S,3R,4R,5S,6R)-3,4,5-trihydroxy-6-(hydroxymethyl)tetrahydro-2H-pyran-2-yl)cyclohex-2-enone]
[2]; comparison of CMC curves between series, FIG. 1
  reduction in Interfacial Tension (IFT): greatest reduction in Interfacial Tension (IFT)
[2]; estimated from point of inflection of CMC curve, FIG. 1
  estimated CMC: very low
[2]
  CMC: 0.17 mM
  γmin: 22 mN/m
[3]; combined with SDS as a 20% solution, compared with SDS alone
  foaming properties when combined with SDS: exceeded that of SDS alone
[3]; combined with SDS as a 20% solution, over 5 minutes
  foam height over 5 minutes when combined with SDS: remained unchanged
[3]; surfactant alone, after 5 minutes, FIG. 2
  excess foam after 5 minutes: virtually no excess foam

## CCCCCCCCCC/C=C/CC(=O)C[C@@H]1OC(CO)[C@@H](O)[C@H](O)C1O (some centres unmarked) [Compound 47]
[2]
  behavior in terms of CMC compared with Compound 1: substanitally the same behavior
  behavior in terms of interfacial tension (γ) reduction compared with Compound 1: substanitally the same behavior
[3]
  foam enhancing and stabilizing capability compared with Compound 1: substanitally the same behavior

Source: patent publication US9096630B2, “Amphiphilic compositions and methods for preparing and using same” (Yale University, priority 2009, dated 2015)
